Assay results reported in patent publication US7122193B1 (priority 1994, dated 2006).
Read-outs that look alike come from different tables or passages of the source. Ends that are not written are not given here. Peptide text beside a SMILES is read from it.

Experiments:
[1] = biological target: MAb 11 × 2 (IgG3) anti-D peptide
[2] = biological target: MAb 11 × 7 (IgG3) anti-D peptide
trypsin = conditions: pH 7.4
in vitro = conditions: pH 7.4
[3] = tested on: anti-virus serum raised in rabbit and serum against the 91–108 sequence expressed at the surface of Salmonella flagellin; format: binding; conditions: FIGS. 14 and 15
I-A^d class II molecules = I-A^d class II molecules (Mus musculus, UniProt P01921+P04228); format: cell-based
I-A^d class II molecules, sequence (P04228 24-256 limits assumed): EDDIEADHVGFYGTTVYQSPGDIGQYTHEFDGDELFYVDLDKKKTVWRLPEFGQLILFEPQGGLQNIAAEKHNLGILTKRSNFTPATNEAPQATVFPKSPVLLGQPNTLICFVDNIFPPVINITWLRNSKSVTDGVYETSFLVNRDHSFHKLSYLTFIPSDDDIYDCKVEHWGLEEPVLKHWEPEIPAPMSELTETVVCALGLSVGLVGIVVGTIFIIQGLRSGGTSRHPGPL
I-A^d class II molecules, sequence (P01921 28-265 limits assumed): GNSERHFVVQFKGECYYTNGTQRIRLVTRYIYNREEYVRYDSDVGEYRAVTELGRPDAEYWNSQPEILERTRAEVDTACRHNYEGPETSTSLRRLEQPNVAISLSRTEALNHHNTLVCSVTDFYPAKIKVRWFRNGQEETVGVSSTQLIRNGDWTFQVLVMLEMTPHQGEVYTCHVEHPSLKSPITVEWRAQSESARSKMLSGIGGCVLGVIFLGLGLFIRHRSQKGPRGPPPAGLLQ

I-E^d class II molecules = I-E^d class II molecules (Mus musculus, UniProt P01904+P01915); format: cell-based
I-E^d class II molecules, sequence (P01904 26-255 limits assumed): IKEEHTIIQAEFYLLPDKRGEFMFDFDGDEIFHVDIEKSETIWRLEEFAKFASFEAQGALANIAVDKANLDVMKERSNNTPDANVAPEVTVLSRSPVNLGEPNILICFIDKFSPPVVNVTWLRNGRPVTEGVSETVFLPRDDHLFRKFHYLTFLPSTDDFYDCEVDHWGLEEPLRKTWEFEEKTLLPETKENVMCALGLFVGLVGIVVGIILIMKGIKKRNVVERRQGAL
I-E^d class II molecules, sequence (P01915 27-264 limits assumed): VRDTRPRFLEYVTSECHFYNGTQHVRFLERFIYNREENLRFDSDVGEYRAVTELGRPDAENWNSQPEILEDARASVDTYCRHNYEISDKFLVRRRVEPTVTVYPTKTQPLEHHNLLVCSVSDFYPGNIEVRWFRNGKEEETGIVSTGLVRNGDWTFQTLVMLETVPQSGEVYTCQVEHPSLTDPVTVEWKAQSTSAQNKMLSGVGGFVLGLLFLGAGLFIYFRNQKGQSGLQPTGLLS

[4] = tested on: peptide-primed T lymphocytes from BALB/c mice; format: cell-based, mouse
[5] = tested on: peptide-primed T lymphocytes from BALB/c mice; format: cell-based, mouse; remark: listed apart in the source
BALB/c mice = conditions: mouse, in vivo
[6] = tested on: I-E^d-restricted T-cell hybridomas 45G10, 44B1 and 41C1; format: cell-based, mouse
[7] = tested on: TCR of peptide-primed lymph node T-cells; format: cell-based, mouse
[8] = tested on: sera of patients suffering from various systemic rheumatic diseases; format: binding, human
HLA-A2 = format: binding, human
[9] = tested on: IgG antibodies of sera of patients suffering from DLE and SS; format: binding, human
[10] = tested on: IgG antibodies of sera of patients suffering from DLE and SS; format: binding, human; remark: listed apart in the source
Description: FIG. 6: ELISA reactivity of serum samples originating from patients suffering from DLE and SS with the parent peptide and the analogue RIb 277–291 of Ro52. The sera of the patients are diluted to 1:1,000. Only the antibody activity of the sub-class IgG is measured. The median values of the optical density are indicated. The broken line represents the upper limit of the normal population corresponding to the mean value of the optical density of 20 normal human sera+2 SD (standard deviation) (0.30 OD units).
Sera of female F1 lupous mice (NZB/W) were obtained from S. Batsford (Freibourg, Germany). The human sera originate from patients suffering from disseminated lupus erythematosus (DLE) and Sjögren's syndrome (SS). They were obtained from D. A. Isenberg (London), O. Meyer (Paris) and G. Fournié (Toulouse). The sera of healthy volunteers were obtained from J. L. Pasquali (Strasbourg).
The sera of lupous mice were tested by ELISA as described previously (Benkirane, N., Friede, M., Guichard, G., briand, J. P., Van Regenmortel, M. H. V. and Muller, S. (1993) Antigenicity and immunogenicity of modified synthetic peptides containing D-amino acid residues. J. Biol. Chem., 268: 26279–26285). Only the antibodies of isotype IgG were tested. […] Clin. Exp. Immunol., 95: 397–407) except in the case of the peptide Ro52 277–291, where sensitization of the ELISA plates was carried out at 4° C. instead of 37° C. (see the reasons above). The threshold value for positivity of each test, including that of tests based on the use of retro-inverso peptide analogues, was determined using 20 sera of healthy individuals. The antigenic activity of the peptides is also measured by ELISA using a liquid phase inhibition test.
The 30 sera (positive or negative with respect to the L peptide) were tested in parallel with the RIa and RIb analogues. It was shown that all the sera positive with the L peptide were also positive with the retro-inverso peptides. […] The mean optical density corresponding to the arithmetic mean of all the optical density values, including the values below the threshold line of positivity, is 0.21 (standard deviation 0.25) and 0.51 (standard deviation 0.62) with the L and RIb peptides respectively.

[11] = tested on: antibodies of sera of patients bonding to the RIb peptide; format: binding, human

CC[C@@H](C)[C@@H](NC(=O)CNC(=O)CNC(=O)[C@H](N)CS)C(=O)N[C@H](CCCNC(=N)N)C(=O)NCC(=O)N[C@H](CCC(=O)O)C(=O)N[C@H](CCCNC(=N)N)C(=O)N[C@H](C)C(=O)O [D peptide] (HELM PEPTIDE1{[dC].G.G.[dI].[dR].G.[dE].[dR].[dA]}$$$$V2.0)
BIAcore (Ka M^−1) affinity constant at equilibrium [1]: 1e+10 M⁻¹
Ka (affinity constant at equilibrium) [1]: 13,000 ×10^6 M^−1
BIAcore (Ka M^−1) affinity constant at equilibrium [2]: 1e+07 M⁻¹
Ka (affinity constant at equilibrium) [2]: 1.2e+07 M⁻¹
time to complete loss of immunological activity on digestion with immobilized trypsin (trypsin): > 240 min
half-life (in vitro): 1.22 h

Ac-CKAFSNSYPYDVPDYASL-NH2 [double blocked L-peptide *C18L*]
recognition by the tested antibodies (ELISA) [3]: substantially recognized in the same way

Ac-YFMYSKLRVQKSC-NH2 [L-peptide 435–446 of γ2a^b]
reduction of the IL-2 production level (I-A^d class II molecules): > 88%
inhibition (of IL-2 production / binding of cI 12–26) (I-E^d class II molecules): Up to 84%
proliferation and IL-2 production of lymph node cells of mice immunized with retro-inverso analogue 435–446 of γ2a^b, stimulated by the peptide [4]: proliferation of lymph node cells and IL-2 production were observed
proliferation of T-lymphocytes of mice immunized with parent peptide 435–446 of γ2a^b, stimulated by the peptide [4]: induced a proliferative T-cell response
IL-2 production of T-lymphocytes of mice immunized with parent peptide 435–446 of γ2a^b, stimulated by the peptide [5]: only observed after stimulation by the parent peptide
maximal IL-2 secretion measured using CTL-L cells in the presence of Con A [5]: 21 565 cpm
cross-reaction in ELISA of antibodies raised against the peptide with the counterpart (L or retro-inverso) peptide (BALB/c mice): showed no cross-reaction

CH3CO-(D)Cys-(D)Ser-(D)Lys-(D)Gln-(D)Val-(D)Arg-(D)Leu-(D)Lys-(D)Ser-(D)Tyr-(D)Met-(D)Phe-(D)Tyr-NH2 [retro-inverso peptide 435–446 of γ2a^b]
inhibition, in words (I-A^d class II molecules): almost no inhibition
reduction of the IL-2 production (I-A^d class II molecules): about 35%
inhibition (of IL-2 production / binding of cI 12–26) (I-E^d class II molecules): ≤ 48%
IL-2 production of T-lymphocytes of mice immunized with parent peptide 435–446 of γ2a^b, stimulated by the peptide [5]: failed to induce detectable IL-2 secretion
maximal IL-2 secretion measured using CTL-L cells in the presence of Con A [5]: 26 445 cpm

CH3CO-Lys-Leu-Phe-AI a-Val-Trp-Lys-Ile-Thr-Tyr-Lys-Asp-Thr-NH2 [L-peptide 103–115 of poliovirus VP1]
binding to I-A^d transfected fibroblasts, in words (I-A^d class II molecules): Neither the L- nor the retro-inverso peptides bound
inhibition (of IL-2 production / binding of cI 12–26) (I-E^d class II molecules): up to 77%
proliferation of T-lymphocytes of mice immunized with retro-inverso analogue 103–115, in response to the peptide [4]: a good proliferative response
proliferation of lymph node cells of mice immunized with parent peptide 103–115, stimulated in vitro by the peptide [4]: proliferated
IL-2 production of T-lymphocytes of mice immunized with retro-inverso analogue 103–115, in response to the peptide [5]: IL-2 production were also found
IL-2 production of lymph node cells of mice immunized with parent peptide 103–115, stimulated in vitro by the peptide [5]: produced significant levels of IL-2
maximal IL-2 secretion measured using CTL-L cells in the presence of Con A [5]: 10 990 cpm
IL-2 production of T-cell hybridomas stimulated by the peptide [6]: produced high levels of IL-2
IL-2 production by T-cells primed with the retro-inverso analogue 103–115 in response to the peptide [7]: significantly increased
cross-reaction in ELISA of antibodies raised against the peptide with the counterpart (L or retro-inverso) peptide (BALB/c mice): cross-reacted, although less efficiently

CH3CO-Ser → Ala → Pro → Ala → Thr → Gly → Gly → Val → Lys → Lys → Pro → His → Arg → Tyr → Arg → Pro → Gly → Thr-NH2 [blocked L peptide 28–45]
number of positive sera [8]: 20
number of positive sera DLE [8]: 12
percentage of positive sera [8]: 29%

GILGFVFAL [Ala 65]
fixing to the molecule HLA-A2 (fluorescence), in words (HLA-A2): very active

GLLGFVFTL [Leu 59]
fixing to the molecule HLA-A2 (fluorescence), in words (HLA-A2): very active

H2 N-D-Val ← D-Cys ← D-Glu ← D-Lys ← D-Leu ← D-Cys ← D-Asn ← D-Glu ← D-Lys ← D-Leu ← D-Leu ← D-Lys ← D-Lys ← D-Ala ← D-Arg ← D-Ile ← D-His ← D-Pro ← D-Phe ← D-His ← D-Ile-COCH3 [Blocked RI peptide 304–324 of Ro60]
mean optical density [9]: 1.15
number of sera which reacted [9]: 15/20
percentage of sera which reacted [9]: 75%

H2N-Gly ← D-Leu ← D-Lys ← D-Lys ← D-Nle ← D-Leu ← D-Arg ← D-Thr ← D-Cys ← D-Ala ← D-Val ← D-His ← D-Ile ← D-Thr ← (R,S)-mLeu-OH [RIb peptide]
sera of patients tested in which anti-peptide 277–291 antibodies are detected ([10]; 30 sera of DLE and SS patients): 50%
mean optical density ([10]; arithmetic mean of all 30 sera, peptide 277–291 of Ro52): 0.51
number of sera which reacted among the 25 sera negative with the L peptide ([10]; threshold 0.30 OD units): 10
inhibition of bonding of the antibodies to the RIb peptide [11]: up to 79.2%

H → Gly → Leu → Lys → Lys→ Nle → Leu → Arg → Thr → Cys → Ala → Val → His → Ile → Thr → Leu → OH [L peptide 277–291]
inhibition of bonding of the antibodies to the RIb peptide [11]: up to 75.8%

H-CKAFSNSYPYDVPDYASL-OH [parent L-peptide C18L]
recognition by the tested antibodies (ELISA) [3]: substantially recognized in the same way

H-Ser → Ala → Pro → Ala → Thr → Gly → Gly → Val → Lys → Lys → Pro → His → Arg → Tyr → Arg → Pro → Gly → Thr-OH [natural L peptide 28–45]
number of positive sera [8]: 12
number of positive sera DLE [8]: 8
percentage of positive sera [8]: 17.4%

[gLeu^60–mGly^61] M58–66 [GG5]
fixing to the molecule HLA-A2 (fluorescence), in words (HLA-A2): do not bond to the HLA-A2 molecule
